Measured values published in patent US8722663B2, “Di-substituted pyridine derivatives as anticancers” (Otsuka Pharmaceutical Co., Ltd., priority 2010, dated 2014).
Counter-ions that a name gives are not always drawn.

Key:
[1] = system: human breast cancer cell line (MDA-MB-468); assay: Growth inhibition of MDA-MB-468 cells, sulforhodamine B method; assay type: cell-based; conditions: 120 h, 5 days with test compound
Description: Growth inhibition of a human breast cancer cell line (MDA-MB-468) was determined by the sulforhodamine B method based on the method of Skehan P. et al. (J Natl Cancer Inst. 1990 Jul. 4; 82(13): 1107-12). In the study, MDA-MB-468 cells were seeded on DMEM medium containing 10% fetal bovine serum in a 96-well microplate. After 24-h incubation at 37° C. in the presence of 5% carbon dioxide, the test compound was added and the cells were incubated for another 5 days. After incubation, a trichloroacetic acid solution was added to yield the final concentration of 10% and the cells were left to stand at 4° C. for 1 hour to fix. Then, the cells were washed with water to remove the medium and trichloroacetic acid and dried in the air. The dried cells were stored at 4° C. until they were stained with sulforhodamine B. To each well, 1% acetic acid solution containing 0.4% sulforhodamine B was added and left to stand for 20 to 30 minutes at room temperature. After discarding the supernatant, each well was washed with 1% acetic acid solution, and 10 mM Tris([…]) solution was added while stirring to elute the dye taken into the cells. Then, the optical density was determined at the measurement wavelength of 492 nm and the reference wavelength of 690 nm, and the difference was calculated. The cell growth activity in each well was defined as the value determined by subtracting the OD in the control well not containing cells (the difference in absorbance between 492 nm and 690 nm) from that in the test well.
(§1) The 50% inhibitory concentration (IC50 (nM)) of the test compound was determined by comparing the cell growth activity in the well containing the test compound with that of the control not containing the test compound.

[2] = system: human prostate (adenocarcinoma) cell line (VcaP); assay: Growth inhibition of VcaP cells, WST-8 assay; assay type: cell-based; conditions: 120 h, 5 days with test compound
Description: (§2) The growth inhibition on a bicalutamide resistant human prostate cancer cell line established from LNCaP.FGC (LNCaP-Bic) (Hobisch A, et al. Prostate. 2006; 66(4):413-20.) was determined by a WST-8 assay according to the method of Singh A K, et al. (Cancer Lett. 1996 Oct. 1; 107(1): 109-15.). In this method, LNCaP-Bic cells were seeded in RPMI 1640 medium containing 10% fetal bovine serum in a 96-well microplate and incubated at 37° C. for 24 hours in the presence of 5% carbon dioxide. Then, the test compound was added and the cells were incubated for another 5 days. After incubation, a 15-μL volume of WST-8 (2-(2-methoxy-4-nitrophenyl)-3-(4-nitrophenyl)-5-(2,4-[…])-2H-tetrazolium, monosodium salt) was added. After the incubation for the time, the color reaction was stopped by adding 15 μL of 1% SDS (sodium dodecyl sulfate) solution and the optical density was determined at the measurement wavelength of 450 nm and the reference wavelength of 630 nm, and the difference was calculated. The cell growth activity in each well was defined as the value determined by subtracting the OD in the control well not containing cells (the difference in absorbance between 450 nm and 630 nm) from that in the test well.
as §1
The growth inhibition on a human prostate (adenocarcinoma) cell line (VcaP) (Korenchuk S, et al. In Vivo. 2001; 15(2):163-8.) was also determined by the above method.

[3] = system: bicalutamide resistant human prostate cancer cell line established from LNCaP.FGC (LNCaP-Bic); assay: Growth inhibition of LNCaP-Bic cells, WST-8 assay; assay type: cell-based; conditions: 120 h, 5 days with test compound
Description: as §2, §1

[4] = system: human prostate (carcinoma) cell line (DU 145); assay: Growth inhibition of DU 145 cells, WST-8 assay; assay type: cell-based; conditions: 120 h, 5 days with test compound
Description: as §2, §1
The growth inhibition on a human prostate (carcinoma) cell line (DU 145) (van Bokhoven A, et al. Prostate. 2003; 57(3):205-25.) was also determined by the above method.

[5] = system: human prostate (carcinoma) cell line (LNCaP.FGC); assay: Growth inhibition of LNCaP.FGC cells, WST-8 assay; assay type: cell-based; conditions: 120 h, 5 days with test compound
Description: as §2, §1
The growth inhibition on a human prostate (carcinoma) cell line (LNCaP.FGC) (van Bokhoven A, et al. Prostate. 2003; 57(3):205-25.) was also determined by the above method.

[6] = system: human prostate (adenocarcinoma) cell line (PC-3); assay: Growth inhibition of PC-3 cells, WST-8 assay; assay type: cell-based; conditions: 120 h, 5 days with test compound
Description: as §2, §1
The growth inhibition on a human prostate (adenocarcinoma) cell line (PC-3) (van Bokhoven A, et al. Prostate. 2003; 57(3):205-25.) was also determined by the above method.

SMILES	IC50 [1] [nM]	melting point [°C]	further results
Cc1cc(/C=C/C(=O)N2CCN(Cc3ccc(CCOc4ccc(C#N)cc4)cc3)CC2)cc(Cl)c1Oc1ccc(OCc2ccc(C(F)(F)F)cc2)cn1 [Example 289, 4-{2-[4-({4-[(E)-3-{3-chloro-5-methyl-4-[(5-{[4-(trifluoromethyl)benzyl]oxy}pyridin-2-yl)oxy]phenyl}prop-2-enoyl]piperazin-1-yl}methyl)phenyl]ethoxy}benzonitrile]	< 10		
C/C(=C\c1cc(C)c(Oc2ccc(OCc3ccc(C)cc3)cn2)c(Cl)c1)C(=O)N1CCN(Cc2ccc(CCOc3ccc(C)cc3)cc2)CC1.Cl [Example 411, (E)-3-[3-Chloro-5-methyl-4-({5-[(4-methylbenzyl)oxy]pyridin-2-yl}oxy)phenyl]-2-methyl-1-(4-{4-[2-(4-methylphenoxy)ethyl]benzyl}piperazin-1-yl)prop-2-en-1-one hydrochloride]	< 10	134.7 to 136.4	
Cc1cc(/C=C/C(=O)N2CCN(Cc3ccc(CCOc4ccc(F)cc4)cc3)CC2)cc(Cl)c1Oc1ccc(OCc2cccc(Cl)c2F)cn1.Cl [Example 485, (E)-3-[3-Chloro-4-({5-[(3-chloro-2-fluorobenzyl)oxy]pyridin-2-yl}oxy)-5-methylphenyl]-1-(4-{4-[2-(4-fluorophenoxy)ethyl]benzyl}piperazin-1-yl)prop-2-en-1-one hydrochloride]	< 10	228.9 to 229.4	
Cc1cc(/C=C/C(=O)N2CCN(Cc3ccc(CCOc4ccc(C(F)(F)F)cc4)cc3F)CC2)cc(C)c1Oc1ccc(OCc2ccc(C#N)cc2)cn1 [Example 616, 4-({[6-(4-{(E)-3-[4-(2-Fluoro-4-{2-[4-(trifluoromethyl)phenoxy]ethyl}benzyl)piperazin-1-yl]-3-oxoprop-1-en-1-yl}-2,6-dimethylphenoxy)pyridin-3-yl]oxy}methyl)benzonitrile hydrochloride]	< 10		
Cc1cc(/C=C/C(=O)N2CCN(Cc3ccc(CCCOc4ccc(F)cc4)cc3)CC2)cc(Cl)c1Oc1ccc(OCc2ccc(C#N)cc2)cn1.Cl [Example 618, 4-{[(6-{2-Chloro-4-[(E)-3-(4-{4-[3-(4-fluorophenoxy)propyl]benzyl}piperazin-1-yl)-3-oxoprop-1-en-1-yl]-6-methylphenoxy}pyridin-3-yl)oxy]methyl}benzonitrile hydrochloride]	< 10	166.2 to 166.7	
Cc1cc(/C=C/C(=O)N2CCN(Cc3ccc(/C=C/COc4ccc(Br)cn4)cc3)CC2)cc(Cl)c1Oc1ccc(OCc2ccc(C#N)cc2)cn1.Cl [Example 657, 4-({[6-(4-{(1E)-3-[4-(4-{(1E)-3-[(5-Bromopyridin-2-yl)oxy]prop-1-en-1-yl}benzyl)piperazin-1-yl]-3-oxoprop-1-en-1-yl}-2-chloro-6-methylphenoxy)pyridin-3-yl]oxy}methyl)benzonitrile hydrochloride]		145 to 145.8	IC50 [2]: < 10 nM; IC50 [3]: < 10 nM; IC50 [4]: < 10 nM; IC50 [5]: < 10 nM; IC50 [6]: < 10 nM
COc1ccc(NCCc2ccc(CN3CCN(C(=O)/C=C/c4ccc(Oc5ccc(OCc6ccc(C#N)cc6)cn5)c(Cl)c4)CC3)cc2)cc1.Cl.Cl [Example 669, 4-({[6-(2-Chloro-4-{(E)-3-[4-(4-{2-[(4-methoxyphenyl)amino]ethyl}benzyl)piperazin-1-yl]-3-oxoprop-1-en-1-yl}phenoxy)pyridin-3-yl]oxy}methyl)benzonitrile dihydrochloride]		219.5 to 222.3	IC50 [2]: < 10 nM; IC50 [3]: < 10 nM; IC50 [4]: < 10 nM; IC50 [5]: < 10 nM; IC50 [6]: < 10 nM

More lines, main results first:

IC50 [1] [nM]	melting point [°C]	SMILES	further results
< 10		Cc1ccc(COc2ccc(Oc3c(C)cc(/C=C/C(=O)N4CCCN(Cc5ccc(CCOc6ccc(C(C)C)cc6)cc5)CC4)cc3Cl)nc2)cc1 [Example 123, (E)-3-[3-Chloro-5-methyl-4-({5-[(4-methylbenzyl)oxy]pyridin-2-yl}oxy)phenyl]-1-[4-(4-{2-[4-(propan-2-yl)phenoxy]ethyl}benzyl)-1,4-diazepan-1-yl]prop-2-en-1-one]	
< 10		Cc1ccc(COc2ccc(Oc3c(C)cc(/C=C/C(=O)N4CCN(Cc5ccc(CCOc6ccc(N(C)C)cc6)cc5)CC4)cc3Cl)nc2)cc1 [Example 321, (E)-3-[3-chloro-5-methyl-4-({5-[(4-methylbenzyl)oxy]-pyridin-2-yl}oxy)phenyl]-1-[4-(4-{2-[4-(dimethylamino)phenoxy]ethyl}benzyl)piperazin-1-yl]prop-2-en-1-one]	
< 10		Cc1ccc(COc2ccc(Oc3c(C)cc(/C=C/C(=O)N4CCN(Cc5ccc(C)cc5)CC4)cc3Cl)nc2)cc1 [Example 359, (E)-3-[3-Chloro-5-methyl-4-({5-[(4-methylbenzyl)oxy]pyridin-2-yl}oxy)phenyl]-1-[4-(4-methylbenzyl)piperazin-1-yl]prop-2-en-1-one]	
< 10		Cc1ccc(OCCc2ccc(CN3CCN(C(=O)/C=C/c4cc(C)c(Oc5ccc(OCc6cccc(F)c6F)cn5)c(Cl)c4)CC3)cc2)cc1 [Example 487, (E)-3-[3-Chloro-4-({5-[(2,3-difluorobenzyl)oxy]pyridin-2-yl}oxy)-5-methylphenyl]-1-(4-{4-[2-(4-methylphenoxy)ethyl]benzyl}piperazin-1-yl)prop-2-en-1-one hydrochloride]	
< 10		Cc1ccc(COc2ccc(Oc3c(C)cc(/C=C/C(=O)N4CCN(Cc5ccc(CC(C)Oc6ccc(C)cc6)cc5)CC4)cc3Cl)nc2)cc1 (centres unmarked) [Example 534, (E)-3-[3-Chloro-5-methyl-4-({5-[(4-methylbenzyl)oxy]pyridin-2-yl}oxy)phenyl]-1-(4-{4-[2-(4-methylphenoxy)propyl]benzyl}piperazin-1-yl)prop-2-en-1-one hydrochloride]	
< 10	240.5 to 243.5	Cc1cc(/C=C/C(=O)N2CCN(Cc3ccc(CCOc4ccc(Cl)cc4)c(F)c3)CC2)cc(C)c1Oc1ccc(OCc2ccc(C#N)cc2)cn1.Cl [Example 614, 4-{[(6-{4-[(E)-3-(4-{4-[2-(4-Chlorophenoxy)ethyl]-3-fluorobenzyl}piperazin-1-yl)-3-oxoprop-1-en-1-yl]-2,6-dimethylphenoxy}pyridin-3-yl)oxy]methyl}benzonitrile hydrochloride]	
< 10		Cc1cc(/C=C/C(=O)N2CCN(Cc3ccc(COc4ccc(C(C)C)cc4)cc3)CC2)cc(C)c1Oc1ccc(OCc2cscn2)cn1 [Example 648, (E)-3-(3,5-Dimethyl-4-{[5-(1,3-thiazol-4-ylmethoxy)pyridin-2-yl]oxy}phenyl)-1-[4-(4-{[4-(propan-2-yl)phenoxy]methyl}benzyl)piperazin-1-yl]prop-2-en-1-one hydrochloride]	
< 10		COc1ccc(COc2ccc(Oc3c(C)cc(/C=C/C(=O)N4CCN(Cc5ccc(CC(C)Oc6ccc(F)cc6)cc5)CC4)cc3C)nc2)cc1 (centres unmarked) [Example 725, (E)-1-(4-{4-[2-(4-Fluorophenoxy)propyl]benzyl}piperazin-1-yl)-3-[4-({5-[(4-methoxybenzyl)-oxy]pyridin-2-yl}oxy)-3,5-dimethylphenyl]prop-2-en-1-one hydrobromide]	
